Test results published in publication PMC9120017, “Inhibition mechanism of the chloride channel TMEM16A by the pore blocker 1PBC” (Nature Communications, 2022).
Like-named read-outs stand apart in the source and are kept apart here.

Target: T1, mouse TMEM16A mutant R535A (Mus musculus, UniProt Q8BHY3, R535A)
T1 construct: expressed in transfected cells; host or cells: HEK293T
T1 sequence (Q8BHY3 1-960 R535A): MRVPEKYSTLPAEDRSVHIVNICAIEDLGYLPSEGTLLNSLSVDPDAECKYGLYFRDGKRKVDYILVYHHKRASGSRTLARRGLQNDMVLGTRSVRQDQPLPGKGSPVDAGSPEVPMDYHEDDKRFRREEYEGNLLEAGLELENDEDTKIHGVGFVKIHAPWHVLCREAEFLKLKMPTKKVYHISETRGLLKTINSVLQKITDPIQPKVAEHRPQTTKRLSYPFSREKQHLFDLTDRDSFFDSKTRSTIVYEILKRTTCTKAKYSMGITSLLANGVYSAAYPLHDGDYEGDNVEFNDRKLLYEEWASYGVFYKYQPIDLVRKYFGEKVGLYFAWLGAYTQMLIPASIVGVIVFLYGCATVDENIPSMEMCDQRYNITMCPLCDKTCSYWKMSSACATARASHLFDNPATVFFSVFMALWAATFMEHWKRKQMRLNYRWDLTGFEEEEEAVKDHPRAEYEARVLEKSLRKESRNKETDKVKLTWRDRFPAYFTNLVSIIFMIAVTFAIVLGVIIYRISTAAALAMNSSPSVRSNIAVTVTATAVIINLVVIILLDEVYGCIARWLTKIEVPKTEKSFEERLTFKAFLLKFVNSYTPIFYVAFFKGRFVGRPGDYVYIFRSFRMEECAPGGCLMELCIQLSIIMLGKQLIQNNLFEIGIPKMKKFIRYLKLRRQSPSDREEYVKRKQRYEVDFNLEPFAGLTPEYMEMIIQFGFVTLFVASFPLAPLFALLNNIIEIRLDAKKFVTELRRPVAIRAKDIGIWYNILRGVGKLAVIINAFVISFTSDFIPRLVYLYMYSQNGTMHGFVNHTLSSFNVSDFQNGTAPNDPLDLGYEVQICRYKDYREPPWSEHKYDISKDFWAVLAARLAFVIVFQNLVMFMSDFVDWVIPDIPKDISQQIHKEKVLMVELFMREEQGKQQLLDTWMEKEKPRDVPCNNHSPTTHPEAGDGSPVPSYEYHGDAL
Experiment: Inside-out patch recording of 1PBC block, mutant R535A
Format: cell-based
Settings: for remaining activity at 100 µM: 100 µM 1PBC
Experimental: HEK293T cells (ATCC CRL-1573) were maintained in Dulbecco’s modified Eagle’s medium (DMEM; Sigma-Aldrich) supplemented with 10 U ml^−1 penicillin, 0.1 mg ml^−1 streptomycin (Sigma-Aldrich), 2 mM L-glutamine (Sigma-Aldrich), and 10% FBS (Sigma-Aldrich) in a humidified atmosphere containing 5% CO2 at 37 °C. HEK293S GnTI^− cells (ATCC CRL-3022) were maintained in HyClone HyCell TransFx-H medium (GE Healthcare) supplemented with 10 U ml^−1 penicillin, 0.1 mg ml^−1 streptomycin, 4 mM L-glutamine, 0.15% poloxamer 188 (Sigma-Aldrich), and 1% FBS in an atmosphere containing 5% CO2 at 185 rpm at 37 °C. The ac splice variant of mouse TMEM16A (UniProt ID: Q8BHY3), mouse TMEM16B (UniProt ID: Q8CFW1), or mouse TMEM16F (UniProt ID: Q6P9J9) bearing a 3C cleavage site, a Venus YFP, a Myc tag, and a Streptavidin-binding peptide (SBP) downstream of the open reading frame in a modified pcDNA3.1 vector (Invitrogen) were used as described previously[21],[31]. Mutations were introduced using a modified QuikChange method[58] and were verified by sequencing.
HEK293T cells were transfected with 3–4 μg DNA per 6 cm Petri dish using the calcium phosphate co-precipitation method and were used within 24–96 h after transfection. Recordings were performed on inside-out patches excised from HEK293T cells expressing the construct of interest. Patch pipettes were pulled from borosilicate glass capillaries (O.D. 1.5 mm, I.D. 0.86 mm, Sutter Instrument) and were fire-polished with a microforge (Narishige) before use. Pipette resistance was typically 3–8 MΩ when filled with the recording solutions detailed below. Seal resistance was typically 4 GΩ or higher. Voltage-clamp recordings were made using Axopatch 200B, Digidata 1550, and Clampex 10.7 (Molecular Devices). Analog signals were filtered with the in-built 4-pole Bessel filter at 10 kHz and were digitized at 20 kHz. Solution exchange was achieved using a gravity-fed system through a theta glass pipette mounted on an ultra-fast piezo-driven stepper (Siskiyou). […] All recordings were performed at 20 °C.
A symmetrical ionic condition was used throughout. Stock solution with Ca^2+-EGTA contained 150 mM NaCl, 5.99 mM Ca(OH)2, 5 mM EGTA, and 10 mM HEPES at pH 7.40. Stock solution with EGTA contained 150 mM NaCl, 5 mM EGTA, and 10 mM HEPES at pH 7.40. Free Ca^2+ concentrations were adjusted by mixing the stock solutions at the required ratios calculated using the WEBMAXC program (http://web.stanford.edu/~cpatton/webmaxcS.htm). Patch pipettes were filled with the stock solution with Ca^2+-EGTA, which has a free Ca^2+ concentration of 1 mM. 1PBC (ChemBridge) stock was reconstituted in anhydrous DMSO (Sigma-Aldrich) at 100 mM and stored at −20 °C. Working solutions with 1PBC were prepared by serial dilution. Unless otherwise stated, experiments were performed at a saturating Ca^2+ concentration as shown in Supplementary Table 1 and the primary data were corrected for current rundown as described previously[21],[25].
Concentration-response relations, obtained from the ratio of the I-V plots before and after the application of the blocker, were fitted to the Hill equation,1 I/Imax=1/1+IC50/[blocker]^h where I/Imax is the normalized current responses, IC50 defines the concentration at which inhibition is at its half-maximum, and h is the Hill coefficient.

N#Cc1c(C(F)(F)F)cc(O)n2c1nc1ccccc12 [1PBC]
IC50 (0 mV, 2 µM Ca2+): 11.9 µM
remaining activity at 3 µM (3 µM 1PBC, +80 mV, saturating Ca2+ (2 µM), read-out: I/Imax): 67.6%
remaining activity at 3 µM (3 µM 1PBC, -80 mV, saturating Ca2+ (2 µM), read-out: I/Imax): 91.3%
remaining activity at 10 µM (10 µM 1PBC, +80 mV, saturating Ca2+ (2 µM), read-out: I/Imax): 36.9%
remaining activity at 10 µM (10 µM 1PBC, -80 mV, saturating Ca2+ (2 µM), read-out: I/Imax): 70.8%
remaining activity at 30 µM (30 µM 1PBC, +80 mV, saturating Ca2+ (2 µM), read-out: I/Imax): 16.6%
remaining activity at 30 µM (30 µM 1PBC, -80 mV, saturating Ca2+ (2 µM), read-out: I/Imax): 46.3%
remaining activity at 100 µM (+80 mV, saturating Ca2+ (2 µM), read-out: I/Imax): 5.26%
remaining activity at 100 µM (-80 mV, saturating Ca2+ (2 µM), read-out: I/Imax): 21.3%
remaining activity at 3 µM (1PBC 3, 0 mV, read-out: fraction of unblocked current): 80.7%
remaining activity at 3 µM (1PBC 3, 20 mV, read-out: fraction of unblocked current): 76.3%
remaining activity at 3 µM (1PBC 3, 40 mV, read-out: fraction of unblocked current): 72.5%
remaining activity at 3 µM (1PBC 3, 60 mV, read-out: fraction of unblocked current): 69.3%
remaining activity at 3 µM (1PBC 3, 80 mV, read-out: fraction of unblocked current): 67.6%
remaining activity at 3 µM (1PBC 3, 100 mV, read-out: fraction of unblocked current): 65.8%
remaining activity at 3 µM (1PBC 3, 120 mV, read-out: fraction of unblocked current): 66%
remaining activity at 3 µM (1PBC 3, 140 mV, read-out: fraction of unblocked current): 66.6%
remaining activity at 3 µM (1PBC 3, -20 mV, read-out: fraction of unblocked current): 85.2%
remaining activity at 3 µM (1PBC 3, -40 mV, read-out: fraction of unblocked current): 87.7%
remaining activity at 3 µM (1PBC 3, -60 mV, read-out: fraction of unblocked current): 89.5%
remaining activity at 3 µM (1PBC 3, -80 mV, read-out: fraction of unblocked current): 91.3%
remaining activity at 3 µM (1PBC 3, -100 mV, read-out: fraction of unblocked current): 91.1%
remaining activity at 3 µM (1PBC 3, -120 mV, read-out: fraction of unblocked current): 92.2%
remaining activity at 3 µM (1PBC 3, -140 mV, read-out: fraction of unblocked current): 91.6%
remaining activity at 10 µM (1PBC 10, 0 mV, read-out: fraction of unblocked current): 53.9%
remaining activity at 10 µM (1PBC 10, 20 mV, read-out: fraction of unblocked current): 48.3%
remaining activity at 10 µM (1PBC 10, 40 mV, read-out: fraction of unblocked current): 43.7%
remaining activity at 10 µM (1PBC 10, 60 mV, read-out: fraction of unblocked current): 39.8%
remaining activity at 10 µM (1PBC 10, 80 mV, read-out: fraction of unblocked current): 36.9%
remaining activity at 10 µM (1PBC 10, 100 mV, read-out: fraction of unblocked current): 34.6%
remaining activity at 10 µM (1PBC 10, 120 mV, read-out: fraction of unblocked current): 34.7%
remaining activity at 10 µM (1PBC 10, 140 mV, read-out: fraction of unblocked current): 35.9%
remaining activity at 10 µM (1PBC 10, -20 mV, read-out: fraction of unblocked current): 59.6%
remaining activity at 10 µM (1PBC 10, -40 mV, read-out: fraction of unblocked current): 63.3%
remaining activity at 10 µM (1PBC 10, -60 mV, read-out: fraction of unblocked current): 67%
remaining activity at 10 µM (1PBC 10, -80 mV, read-out: fraction of unblocked current): 70.8%
remaining activity at 10 µM (1PBC 10, -100 mV, read-out: fraction of unblocked current): 73%
remaining activity at 10 µM (1PBC 10, -120 mV, read-out: fraction of unblocked current): 74.7%
remaining activity at 10 µM (1PBC 10, -140 mV, read-out: fraction of unblocked current): 75.4%
remaining activity at 30 µM (1PBC 30, 0 mV, read-out: fraction of unblocked current): 28.6%
remaining activity at 30 µM (1PBC 30, 20 mV, read-out: fraction of unblocked current): 24.4%
remaining activity at 30 µM (1PBC 30, 40 mV, read-out: fraction of unblocked current): 20.9%
remaining activity at 30 µM (1PBC 30, 60 mV, read-out: fraction of unblocked current): 18.1%
remaining activity at 30 µM (1PBC 30, 80 mV, read-out: fraction of unblocked current): 16.6%
remaining activity at 30 µM (1PBC 30, 100 mV, read-out: fraction of unblocked current): 15.4%
remaining activity at 30 µM (1PBC 30, 120 mV, read-out: fraction of unblocked current): 15.7%
remaining activity at 30 µM (1PBC 30, 140 mV, read-out: fraction of unblocked current): 16.3%
remaining activity at 30 µM (1PBC 30, -20 mV, read-out: fraction of unblocked current): 32.7%
remaining activity at 30 µM (1PBC 30, -40 mV, read-out: fraction of unblocked current): 36.9%
